Patent US8222260B2, “Substituted 6-anilinopurine derivatives as inhibitors of cytokinin oxidase/dehydrogenase and preparations containing these derivatives” (Univerzita Palackego V Olomouci, priority 2007, dated 2012)

Key:
AHK3 = molecular target: T1, AHK3 (Arabidopsis thaliana, UniProt Q9C5U1); test: Activation of cytokinin receptors (E. coli KMI001 beta-galactosidase reporter); type: cell-based; details: 28 h incubation; n.a. means no activation
T1 sequence (Q9C5U1 1-1036): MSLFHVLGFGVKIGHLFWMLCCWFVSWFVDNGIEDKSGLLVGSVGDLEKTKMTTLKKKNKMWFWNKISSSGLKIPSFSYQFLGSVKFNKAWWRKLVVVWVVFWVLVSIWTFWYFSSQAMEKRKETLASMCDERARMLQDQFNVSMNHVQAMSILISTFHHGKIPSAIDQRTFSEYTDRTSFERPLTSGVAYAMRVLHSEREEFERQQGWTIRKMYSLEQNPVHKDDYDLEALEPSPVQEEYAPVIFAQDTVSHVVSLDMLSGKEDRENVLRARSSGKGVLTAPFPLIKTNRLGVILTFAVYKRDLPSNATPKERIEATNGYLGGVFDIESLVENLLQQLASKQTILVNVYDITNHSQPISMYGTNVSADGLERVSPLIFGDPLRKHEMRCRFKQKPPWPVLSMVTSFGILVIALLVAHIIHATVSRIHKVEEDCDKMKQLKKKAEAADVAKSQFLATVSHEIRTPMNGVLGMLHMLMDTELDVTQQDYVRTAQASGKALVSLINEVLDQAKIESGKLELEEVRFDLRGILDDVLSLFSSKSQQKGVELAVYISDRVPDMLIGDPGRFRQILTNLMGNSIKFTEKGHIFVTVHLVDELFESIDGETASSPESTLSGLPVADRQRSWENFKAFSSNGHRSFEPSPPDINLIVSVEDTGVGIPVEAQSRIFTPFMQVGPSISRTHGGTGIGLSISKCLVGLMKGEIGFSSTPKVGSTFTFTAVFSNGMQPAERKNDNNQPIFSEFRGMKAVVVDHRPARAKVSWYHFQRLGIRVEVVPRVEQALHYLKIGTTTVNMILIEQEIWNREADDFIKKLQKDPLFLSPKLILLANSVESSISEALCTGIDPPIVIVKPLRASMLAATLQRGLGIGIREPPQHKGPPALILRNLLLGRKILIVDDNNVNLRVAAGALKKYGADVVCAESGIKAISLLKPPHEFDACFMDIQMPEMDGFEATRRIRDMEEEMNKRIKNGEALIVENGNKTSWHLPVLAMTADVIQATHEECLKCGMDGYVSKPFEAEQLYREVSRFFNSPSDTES
Method: (§1) Escherichia coli strains KMI001 harbouring the plasmid […]4 or […]3 were grown overnight at 25° C. in M9 media enriched with 0.1% casamino acids to OD600 1. The preculture was diluted 1:600 in 1 ml M9 medium containing 0.1% casamino acids and 1 μl stock solution of either the tested compound (10^-7 M-5×10^-5 M) or solvent control (DMSO, ethanol, methanol) were added. The cultures were further grown at 25° C. in microtiter plate, 200 μl per well. […] The cultures were centrifuged and 50 μl aliquots of the supernatant were transferred to microtiter plate containing 2 μl 150 mM 4-methyl umbelliferyl galactoside which was subsequently incubated for 1 h at 37° C. The reaction was stopped by adding 100 μl 0.2 M Na2CO3. […] The EC50 value, the compound concentration activating the receptor to 50%, was calculated from the obtained dose response curves. The values shown in Table 10 are means of three replicates and the entire test was repeated at least twice.

CRE1/AHK4 = CRE1/AHK4 (Arabidopsis thaliana, UniProt Q9C5U0); test: as above; type: cell-based; details: 17 h incubation; n.a. means no activation
CRE1/AHK4, sequence (Q9C5U0 whole entry): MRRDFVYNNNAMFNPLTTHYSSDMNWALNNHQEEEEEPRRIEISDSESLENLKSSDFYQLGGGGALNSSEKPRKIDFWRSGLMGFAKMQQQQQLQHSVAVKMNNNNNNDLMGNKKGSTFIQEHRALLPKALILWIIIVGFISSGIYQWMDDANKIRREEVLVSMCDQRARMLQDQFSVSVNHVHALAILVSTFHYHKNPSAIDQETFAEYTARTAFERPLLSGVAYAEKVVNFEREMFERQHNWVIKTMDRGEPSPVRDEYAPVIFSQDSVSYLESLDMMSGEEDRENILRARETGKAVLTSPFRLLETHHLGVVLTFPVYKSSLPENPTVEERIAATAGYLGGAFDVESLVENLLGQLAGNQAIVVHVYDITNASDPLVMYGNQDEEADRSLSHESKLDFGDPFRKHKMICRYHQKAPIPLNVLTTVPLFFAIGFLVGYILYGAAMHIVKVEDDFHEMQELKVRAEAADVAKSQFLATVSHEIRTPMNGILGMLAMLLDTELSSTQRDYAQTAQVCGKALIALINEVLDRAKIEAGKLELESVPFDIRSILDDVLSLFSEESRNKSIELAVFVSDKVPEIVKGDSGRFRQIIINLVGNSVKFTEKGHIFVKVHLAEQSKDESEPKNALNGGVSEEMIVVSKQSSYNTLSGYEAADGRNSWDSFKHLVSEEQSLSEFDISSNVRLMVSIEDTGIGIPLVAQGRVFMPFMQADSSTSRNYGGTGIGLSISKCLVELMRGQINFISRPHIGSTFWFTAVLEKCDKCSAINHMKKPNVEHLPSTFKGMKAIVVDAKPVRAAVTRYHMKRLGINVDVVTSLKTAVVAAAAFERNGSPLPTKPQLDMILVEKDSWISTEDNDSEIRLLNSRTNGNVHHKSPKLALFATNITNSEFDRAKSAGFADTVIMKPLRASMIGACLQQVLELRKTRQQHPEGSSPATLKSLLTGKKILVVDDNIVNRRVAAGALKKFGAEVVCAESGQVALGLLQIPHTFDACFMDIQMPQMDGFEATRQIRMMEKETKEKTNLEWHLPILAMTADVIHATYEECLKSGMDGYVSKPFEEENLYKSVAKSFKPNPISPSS
Method: as §1

[1] = system: cytokinin-dependent tobacco callus Nicotiana tabacum L. cv. Wisconsin 38; test: Tobacco callus biotest (plant cell division); type: cell-based; details: at the concentration with highest activity, relative to 10^−5 M kinetin
Method: The stimulatory effect of the newly prepared derivatives was tested in the calus biotest using cytokinin-dependent tobacco callus. Cytokinin-dependent tobacco callus Nicotiana tabacum L. cv. Wisconsin 38 was maintained at 25° C. in darkness on modified Murashige-Skoog medium, containing per 1 liter: 4 μmol of nicotinic acid, 2.4 μmol of pyridoxine hydrochloride, 1.2 μmol of thiamine, 26.6 μmol of glycine, 1.37 μmol of glutamine, 1.8 μmol of myo-inositol, 30 g of sucrose, 8 g of agar, 5.37 μmol of NAA and 0.5 μmol of 6-benzylaminopurine. Subcultivation was carried out every three weeks. Fourteen days before the bioassay, the callus tissue was transferred to the media without 6-benzylaminopurine. The biological activity was determined from the increase of the fresh callus weight after four weeks of cultivation. Five replicates were prepared for each concentration of the compound tested and the entire test was repeated twice. […] The compounds to be tested were dissolved in dimethylsulfoxide (DMSO) and the solution brought up to 10^−3 M with distilled water.
From the obtained data, the concentration with the highest activity was selected for each compound tested. Relative activity of the compound at this concentration was calculated (Table 11). The activity obtained for 10^−5 M of the control substance kinetin (K) was postulated as 100%.

[2] = system: Amaranthus caudatus cotyledon/hypocotyl explants; test: Amaranthus bioassay (betacyanin content); type: cell-based, Amaranthus caudatus var. atropurpurea; details: at the concentration with highest activity, relative to 10^−5 M kinetin
Method: The standard Amaranthus bioassay was performed with the following modifications. The seeds of Amaranthus caudatus var. atropurpurea were surface-sterilised in 10% (w/v) N-chlorobenzenesulfonamide for 10 min and washed 5 times with deionized water. They were placed in 15 cm Petri dishes containing paper tissues saturated with deionized water. After 72 h of cultivation at 25° C. in darkness, the roots of the seedlings were cut off. The explants, consisting of two cotyledons and hypocotyls, were placed in 5 cm Petri dishes onto two layers of filtration paper soaked with 1 ml of the incubation medium containing 10 μmol of Na2HPO4—KH2PO4, pH 6.8, 5 μmol of tyrosine and the compound to be tested. There were 20 explants per dish. The procedure was carried out under green safe light in a darkroom. After 48 h of incubation at 25° C. in darkness, betacyanin was extracted by freezing the explants in 4 ml 3.33 μM acetic acid. The concentration of betacyanin was determined from the absorbances at 537 nm and 620 nm as follows: ΔA=A537nm−A620nm. The values ΔA were plotted against the concentration tested, are means of five replicates and the entire test was repeated at least twice. […] The compounds to be tested were dissolved in dimethylsulfoxide (DMSO) and the solution brought up to 10^−3M with distilled water.
From the obtained data, the concentration with the highest activity was selected for each compound tested. Relative activity of the compound at this concentration was calculated (Tab. 12). The activity obtained for 10^−5 M kinetin (K) was postulated as 100%.

recombinant AtCKX2 = molecular target: T2, recombinant AtCKX2 (Arabidopsis thaliana, UniProt Q9FUJ3); test: Inhibition of cytokinin oxidase/dehydrogenase activity (PMS/MTT microtitre plate assay); type: biochemical; details: 30 μM iP as substrate, pH 7.4, 37° C.; means of three replicates; read-out: IC50, inhibition of recombinant AtCKX2
T2 sequence (Q9FUJ3 23-501): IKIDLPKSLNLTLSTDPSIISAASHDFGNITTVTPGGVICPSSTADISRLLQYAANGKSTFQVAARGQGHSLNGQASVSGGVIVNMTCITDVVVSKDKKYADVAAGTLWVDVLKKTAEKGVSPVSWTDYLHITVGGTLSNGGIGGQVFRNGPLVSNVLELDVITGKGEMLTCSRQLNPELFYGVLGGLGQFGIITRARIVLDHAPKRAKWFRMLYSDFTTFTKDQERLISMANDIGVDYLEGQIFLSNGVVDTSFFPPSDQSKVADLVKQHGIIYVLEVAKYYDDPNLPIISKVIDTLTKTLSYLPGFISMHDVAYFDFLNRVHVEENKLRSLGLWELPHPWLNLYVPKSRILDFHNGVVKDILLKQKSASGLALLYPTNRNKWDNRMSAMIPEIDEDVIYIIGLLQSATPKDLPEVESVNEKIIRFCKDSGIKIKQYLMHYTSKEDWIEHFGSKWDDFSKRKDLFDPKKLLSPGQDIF
Method: IC50 determinations were done using the assay in microtitre plate. Each well contained 100 μL of PMS/MTT [phenazine methosulfate/3-(4,5-dimethylthiazol-2-yl)-2,5-diphenyltetrazolium bromide] reaction mixture (final concentrations: 0.1 M KH2PO4, pH 7.4, 1 mM MTT, 0.2 mM PMS) containing the tested compound (3×10^−7 M-3×10^−4 M) and 30 μM N^6-isopentenyladenine (iP) as a substrate. 100 μL of cell-free growth medium of S. cerevisiae strain 23344c ura^− harboring the plasmid pYES2-AtCKX2 was directly used as a source of AtCKX2. Plates were incubated in the dark for […] at 37° C. and the enzymatic reaction was stopped by 25 μL of 35% acetic acid. The absorbance at 578 nm was measured using spectrophotometer Tecan. Absorbance of the sample without iP was subtracted.
The IC50 value, the compound concentration that inhibits the enzyme activity to 50%, was calculated from the obtained dose response curves. The values shown in Table 9 are means of three replicates and the entire test was repeated at least twice.

Cc1ccc(Nc2nc(Cl)nc3[nH]cnc23)cc1C [Compound 30]
EC50 (AHK3): > 50 µM
EC50 (CRE1/AHK4): 33.3 µM

Oc1ccccc1Nc1nc(F)nc2[nH]cnc12 [Compound 47]
EC50 (AHK3): 45.8 µM
EC50 (CRE1/AHK4): > 50 µM

Oc1ccc(Nc2nc(F)nc3[nH]cnc23)cc1 [Compound 49]
EC50 (AHK3): > 50 µM
EC50 (CRE1/AHK4): 37.1 µM
Activity (%) [10^−5 mol · l^−1 K = 100%] [1]: 106%

COc1ccccc1Nc1nc(F)nc2[nH]cnc12 [Compound 50]
EC50 (AHK3): 17.4 µM
EC50 (CRE1/AHK4): > 50 µM
Activity (%) [10^−5 mol · l^−1 K = 100%] [1]: 117.6%
Activity (%) [10^−5 mol · l^−1 K = 100%] [2]: 105.2%

Nc1nc(Nc2ccccc2O)c2[nH]cnc2n1 [Compound 71]
EC50 (AHK3): > 50 µM
EC50 (CRE1/AHK4): > 50 µM

COc1cccc(Nc2nc(N)nc3nc[nH]c23)c1 [Compound 75, 2-Amino-6-(3-methoxyanilino)purine]
IC50 (recombinant AtCKX2): 24.7 µM
EC50 (AHK3): 20.4 µM
Activity (%) [10^−5 mol · l^−1 K = 100%] [2]: 123.6%

Sc1nc(Nc2cccc(Cl)c2)c2nc[nH]c2n1 [Compound 80]
IC50 (recombinant AtCKX2): 28.4 µM
EC50 (AHK3): 42 µM
Activity (%) [10^−5 mol · l^−1 K = 100%] [1]: 126%
Activity (%) [10^−5 mol · l^−1 K = 100%] [2]: 106%

COc1cccc(Nc2nc(S)nc3[nH]cnc23)c1 [Compound 88]
IC50 (recombinant AtCKX2): 28.3 µM
EC50 (AHK3): 31.7 µM
Activity (%) [10^−5 mol · l^−1 K = 100%] [1]: 103.4%
Activity (%) [10^−5 mol · l^−1 K = 100%] [2]: 113.4%

CSc1nc(Nc2cccc(Cl)c2)c2nc[nH]c2n1 [Compound 96]
EC50 (AHK3): 29 µM
EC50 (CRE1/AHK4): 41 µM
Activity (%) [10^−5 mol · l^−1 K = 100%] [1]: 121.2%
Activity (%) [10^−5 mol · l^−1 K = 100%] [2]: 145.8%

CSc1nc(Nc2cccc(F)c2)c2nc[nH]c2n1 [Compound 98]
EC50 (AHK3): 32 µM
EC50 (CRE1/AHK4): 49 µM
Activity (%) [10^−5 mol · l^−1 K = 100%] [1]: 130.3%
Activity (%) [10^−5 mol · l^−1 K = 100%] [2]: 142.5%

Cc1nc(Nc2cccc(Cl)c2)c2nc[nH]c2n1 [Compound 111]
IC50 (recombinant AtCKX2): 15.7 µM
EC50 (AHK3): > 50 µM
Activity (%) [10^−5 mol · l^−1 K = 100%] [1]: 128.3%

Cc1nc(Nc2cccc(F)c2)c2nc[nH]c2n1 [Compound 113]
IC50 (recombinant AtCKX2): 21.8 µM
Activity (%) [10^−5 mol · l^−1 K = 100%] [1]: 125.3%
Activity (%) [10^−5 mol · l^−1 K = 100%] [2]: 120.2%

COc1cccc(Nc2nc(C)nc3nc[nH]c23)c1 [Compound 118, 2-Methyl-6-(3-methoxyanilino)purine]
IC50 (recombinant AtCKX2): 9.4 µM
EC50 (AHK3): > 50 µM
Activity (%) [10^−5 mol · l^−1 K = 100%] [1]: 105.7%
Activity (%) [10^−5 mol · l^−1 K = 100%] [2]: 144.2%
